Here are results for 2 sequences from patent US20160039897A1, “COMPOUNDS AND METHODS FOR TREATING OBESITY AND CONTROLLING WEIGHT” (THE UNIVERSITY OF NORTH CAROLINA AT CHAPEL HILL, priority 2013, published 2016).

The subject of assay [1] is IGFBP-2−/− mice. The assay is described as follows: Body weight gain and food intake, 12 weeks of peptide treatment. In kind it is in vivo, mouse. As to conditions: pegylated peptide 50 μg IP 3 times/week; for body weight gain (in words): HBD peptides after 8 weeks vs control peptide, control peptide over 12 weeks vs wild type. As for the experimental part:
Generation of the B6.129-Igfbp2^tmlJep, referred to as Igfbp2^−/− mice, has been described previously (DeMambro et al., 2008; Danno et al., 1992). The mice were backcrossed onto C57BL/6J background for at least 10 generations. Mating pairs were provided from Maine Medical Center Research Institute (Scarborough, Me.). Igfbp2^+/+ mice were C57BL/6J controls. All in vivo and ex vivo experimental studies were performed using male mice. The animal study protocol was reviewed and approved by the Institutional Animal Care and Use Committee of University of North Carolina at Chapel Hill. Mice were assigned to one of four treatment groups. 1) Peg HBD1 peptide: Igfbp2^−/− mice were administered 50 μg of the pegylated HBD1 peptide in 0.1 mL PBS (n=9); 2) Peg HBD2 peptide: Igfbp2^−/− mice were administered 50 μg of the pegylated HBD2 peptide in 0.1 mL PBS (n=10); 3) control peptide: Igfbp2^−/− mice were given 50 μg of the HBD1 control peptide in 0.1 mL PBS (n=18); 4) WT: Igfbp2^+/+ mice were given 0.1 mL of PBS (n=9). All injections were administered IP 3 times weekly from 10-22 weeks of age. All mice were provided with free access to 2018 Teklad global rodent diet (Harlan, Dublin, Va.), containing 18.6% protein, 6.2% fat and 3.5% crude fiber. Food consumption and the weights of the mice were determined weekly.
To investigate the effect of IGFBP-2 HBDs on weight gain and fat mass in vivo, the peptides containing HBD sequences were administered to IGFBP-2−/− mice. […] To extend the half life of the peptides and increase their resistance to proteolysis in vivo, all three peptides were pegylated. It has been shown that 50 μg of HBD1 peptide administered via intraperitoneal (IP) injection 5 times per week for 3 weeks was effective in promoting bone growth in IGFBP-2^−/− male mice (17). […] In the second phase the effects of the HBD2 and control peptides were determined. […] To exclude the possibility that differences in weight gain were caused by different food intake, food consumption was measured weekly.
Mice. […] Food consumption and the weights of the mice were determined weekly. […]

Assay [2] deals with IGFBP-2−/− mice. Briefly: Serum adiponectin and leptin by ELISA. In kind it is in vivo, mouse. The following applies: after 12 weeks. As for the experimental part: Body fat and lean muscle mass was measured at weeks 0 and 12 of treatment by magnetic resonance imaging analysis (EchoMRI-100, Echo Medical Systems, Houston, Tex.), a technique that measures fat mass and lean mass in unanesthetized animals (Kelly S A, et. al., 2010). After completion of 12 weeks of treatment, the mice were sacrificed. Blood was collected by cardiac puncture and allowed to sit for 4 hours before centrifuging at 3500 rpm×15 min. The serum was aspirated and stored at −20° C. until analysis. Abdominal inguinal and visceral fat pads were carefully dissected from each animal according to defined anatomical landmarks. All subcutaneous fat between the lower part of the rib cage and the upper thigh was considered abdominal subcutaneous inguinal fat, whereas all fat found along the mesentery starting at the lesser curvature of the stomach and ending at the sigmoid colon was considered visceral fat. Fat depots were blotted dry prior to weighing. The right inguinal fat pad was dissected separately and the triglyceride content of this tissue was determined by a colorimetric analysis (Pointe Scientific, Canton, Mich.), as previously described (Dann H, Kimura S 1992). Serum adiponectin and leptin were measured by ELISA following manufacturer's instructions (Millipore, Billerica, Mass.).
Body composition and serum adipokine measurement. Body fat and lean mass were measured at weeks 0 and 12 of treatment by magnetic resonance imaging analysis (EchoMRI-100, Echo Medical Systems, Houston, Tex.), using unanesthetized animals. After 12 weeks of treatment, the mice were sacrificed and blood was collected by cardiac puncture and centrifuged at 3500 rpm×15 min. The serum was stored at −20° C. Abdominal inguinal and visceral fat pads were dissected from each animal according to defined anatomical landmarks. Subcutaneous fat between the rib cage and the upper thigh was termed subcutaneous inguinal fat, whereas all fat from the lesser curvature of the stomach to the sigmoid colon was termed visceral fat. Fat depots were blotted dry prior to weighing. The right inguinal fat pad was dissected separately and the triglyceride content of this tissue was determined by a calorimetric analysis (Pointe Scientific, Canton, Mich. Serum adiponectin and leptin were measured by ELISA following manufacturer's instructions (Millipore, Billerica, Mass.).

On to KHGLYNLKQCKMSLNGQR [HBD2 peptide], for which the “body weight gain (in words)” value in the assay with IGFBP-2−/− mice [1] is reported as “gained significantly less weight”. The “weight gain compared to mice that received HBD1 peptide” value in the assay on IGFBP-2−/− mice [1] (after 10 weeks) was “significantly less”. Moreover, in the assay with IGFBP-2−/− mice [2], the “increase of serum leptin level compared to control peptide treated mice” value is 57±9%, the “serum adiponectin level lower than in control peptide treated mice” value turned out to be 36±4% and the “serum adiponectin level reduction compared to HBD1 peptide treated mice” value is on record as 24±5%.
On to KHLSLEEPKKLRP [HBD1 peptide], for which, in the assay on IGFBP-2−/− mice [1], the “body weight gain (in words)” value is listed as “gained significantly less weight”. For the same sequence, the “increase of serum leptin level compared to control peptide treated mice” value in the assay with IGFBP-2−/− mice [2] was “had no effect”.
